From patent US8993574B2, “Pyrrole antifungal agents” (F2G Ltd, priority 2008, dated 2015)
In brackets after ≈: the same amount, converted by molar mass.

Tests used:
Type in all cases: cell-based
Aspergillus flavus [1] = assay: MIC, RPMI medium; details: MIC banded into grades; for MIC: Aspergillus flavus, read-out: MIC grade, A. flavus
Method in brief: (§1)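 Broth microdilution in RPMI medium with 2% glucose and 0.135 M MOPS (pH 7.0); compounds as doubling dilutions over 50-0.05 mg/L, inoculum 1−2×10^4 cfu/mL. Plates incubated 24-48 h at 35° C; OD 485 nm read, MIC being lowest concentration giving >80% growth inhibition versus drug-free control.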

[2] = test system: Aspergillus fumigatus AF293; assay: MIC, RPMI medium; details: for MIC grade, A. fumigatus: MIC banded into grades; for MIC: Aspergillus fumigatus, AF293, MIC banded into grades, read-out: MIC grade, A. fumigatus
Method in brief: as §1

Aspergillus niger [3] = assay: MIC, RPMI medium; details: MIC banded into grades; for MIC: Aspergillus niger, read-out: MIC grade, A. niger
Method in brief: as §1

[4] = test system: Aspergillus fumigatus AF210; assay: MIC, RPMI medium; details: for MIC grade, A. fumigatus 210: MIC banded into grades; for MIC: Aspergillus fumigatus, AF210, MIC banded into grades, read-out: MIC grade, A. fumigatus 210
Method in brief: as §1

Aspergillus terreus AT4 [5] = assay: MIC, RPMI medium; details: for MIC grade, A. terreus: MIC banded into grades; for MIC: Aspergillus terreus, AT4, MIC banded into grades, read-out: MIC grade, A. terreus
Method in brief: as §1

Aspergillus terreus AT49 [6] = assay: MIC, RPMI medium; details: for MIC grade, A. terreus 49: MIC banded into grades; for MIC: Aspergillus terreus, AT49, MIC banded into grades, read-out: MIC grade, A. terreus 49
Method in brief: as §1

Aspergillus flavus [7] = assay: MIC, YAG medium; details: 24 h at 35° C, MIC banded into grades; for MIC: Aspergillus flavus, 24 h, read-out: MIC grade, A. flavus
Method in brief: (§2)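 Endpoint is growth at OD 485 nm after 24 h at 35° C, with MIC defined as the lowest drug level giving >70% inhibition relative to untreated wells and recorded in mg/L. Tests ran in YAG broth with 1−2×10^4 cfu/mL spore inocula from Sabouraud-grown cultures. Drug ranges were 50-0.05 mg/L, repeated at 0.5-0.0005 mg/L when needed.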

[8] = test system: Aspergillus fumigatus AF293; assay: MIC, YAG medium; details: 24 h at 35° C, MIC banded into grades; for MIC: Aspergillus fumigatus, read-out: MIC grade, A. fumigatus
Method in brief: as §2

Aspergillus niger [9] = assay: MIC, YAG medium; details: 24 h at 35° C, MIC banded into grades; for MIC: Aspergillus niger, read-out: MIC grade, A. niger
Method in brief: as §2

[10] = test system: Aspergillus fumigatus AF210; assay: MIC, YAG medium; details: 24 h at 35° C, MIC banded into grades; for MIC: Aspergillus fumigatus, read-out: MIC grade, A. fumigatus 210
Method in brief: as §2

Aspergillus terreus AT4 [11] = assay: MIC, YAG medium; details: 24 h at 35° C, MIC banded into grades; for MIC: Aspergillus terreus, read-out: MIC grade, A. terreus
Method in brief: as §2

Aspergillus terreus AT49 [12] = assay: MIC, YAG medium; details: 24 h at 35° C, MIC banded into grades; for MIC: Aspergillus terreus, read-out: MIC grade, A. terreus 49
Method in brief: as §2

Structure (SMILES) | MIC grade, A. flavus (Aspergillus flavus [1]) | MIC grade, A. fumigatus [2] | MIC grade, A. niger (Aspergillus niger [3]) | MIC grade, A. fumigatus 210 [4] | MIC grade, A. terreus (Aspergillus terreus AT4 [5]) | MIC grade, A. terreus 49 (Aspergillus terreus AT49 [6]) | MIC grade, A. flavus (Aspergillus flavus [7]) | MIC grade, A. fumigatus [8] | MIC (Aspergillus flavus [1]) [µg/mL] | MIC [2] [µg/mL] | MIC (Aspergillus niger [3]) [µg/mL] | MIC [4] [µg/mL] | MIC (Aspergillus terreus AT4 [5]) [µg/mL] | MIC (Aspergillus terreus AT49 [6]) [µg/mL] | MIC (Aspergillus flavus [7]) [µg/mL] | MIC [8] [µg/mL] | MIC (Aspergillus niger [9]) [µg/mL] | MIC [10] [µg/mL] | MIC (Aspergillus terreus AT4 [11]) [µg/mL] | MIC (Aspergillus terreus AT49 [12]) [µg/mL] | other results
Cc1cc(C)nc(N2CCN(c3ccc(NC(=O)C(=O)c4c(-c5ccccc5)cc(C)n4CC(=O)OC(C)C)cc3)CC2)c1 [Example 77, (2-{4-[4-(4,6-Dimethyl-pyridin-2-yl)-piperazin-1-yl]-phenylaminooxalyl}-5-methyl-3-phenyl-pyrrol-1-yl)-acetic acid isopropyl ester] | 1 (a grade of 1 represents an MIC of greater than 10 mg/L) | 2 (A grade of 2 represents an MIC of from 1 to 10 mg/L) | 1 (a grade of 1 represents an MIC of greater than 10 mg/L) | 2 (A grade of 2 represents an MIC of from 1 to 10 mg/L) | 1 (a grade of 1 represents an MIC of greater than 10 mg/L) | 1 (a grade of 1 represents an MIC of greater than 10 mg/L) | 1 (a grade of 1 represents an MIC of greater than 10 mg/L) | 3 (A grade of 3 represents an MIC of less than 1 mg/L) | – | – | – | – | – | – | – | – | – | – | – | – | MIC grade, A. niger (Aspergillus niger [9]): 2 (A grade of 2 represents an MIC of from 1 to 10 mg/L); MIC grade, A. fumigatus 210 [10]: 3 (A grade of 3 represents an MIC of less than 1 mg/L); MIC grade, A. terreus (Aspergillus terreus AT4 [11]): 2 (A grade of 2 represents an MIC of from 1 to 10 mg/L); MIC grade, A. terreus 49 (Aspergillus terreus AT49 [12]): 2 (A grade of 2 represents an MIC of from 1 to 10 mg/L)
COCCn1c(C(C)C)cc(-c2ccccc2)c1C(=O)C(=O)Nc1ccc(N2CCN(c3cc(C)cc(C)n3)CC2)cc1 [Example 78, N-{4-[4-(4,6-Dimethyl-pyridin-2-yl)-piperizin-1-yl]-phenyl}-2-[5-isopropyl-1-(2-methoxy-ethyl)-3-phenyl-1H-pyrrol-2-yl]-2-oxo-acetamide] | 1 (a grade of 1 represents an MIC of greater than 10 mg/L) | 1 (a grade of 1 represents an MIC of greater than 10 mg/L) | 1 (a grade of 1 represents an MIC of greater than 10 mg/L) | 1 (a grade of 1 represents an MIC of greater than 10 mg/L) | 1 (a grade of 1 represents an MIC of greater than 10 mg/L) | 1 (a grade of 1 represents an MIC of greater than 10 mg/L) | 1 (a grade of 1 represents an MIC of greater than 10 mg/L) | 1 (a grade of 1 represents an MIC of greater than 10 mg/L) | – | – | – | – | – | – | – | – | – | – | – | – | MIC grade, A. niger (Aspergillus niger [9]): 1 (a grade of 1 represents an MIC of greater than 10 mg/L); MIC grade, A. fumigatus 210 [10]: 1 (a grade of 1 represents an MIC of greater than 10 mg/L); MIC grade, A. terreus (Aspergillus terreus AT4 [11]): 1 (a grade of 1 represents an MIC of greater than 10 mg/L); MIC grade, A. terreus 49 (Aspergillus terreus AT49 [12]): 2 (A grade of 2 represents an MIC of from 1 to 10 mg/L)
COCCc1cc(C)n(-c2ccccc2)c1C(=O)C(=O)Nc1ccc(N2CCN(c3cc(C)cc(C)n3)CC2)cc1 [Example 80, N-{4-[4-(4,6-Dimethyl-pyridin-2-yl)-piperazin-1-yl]-phenyl}-2-[3-(2-methoxy-ethyl)-5-methyl-1-phenyl-1H-pyrrol-2-yl]-2-oxo-acetamide] | – | – | – | – | – | – | – | – | > 10 | > 10 | > 10 | > 10 | > 10 | > 10 | > 10 | > 10 | > 10 | > 10 | > 10 | > 10 | –
CCCNC(=O)C(=O)c1c(-c2ccccc2)ccn1CCOC [Example 82, 2-[1-(2-Methoxy-ethyl)-3-phenyl-1H-pyrrol-2-yl]-2-oxo-N-propyl-acetamide] | – | – | – | – | – | – | – | – | > 10 | > 10 | > 10 | > 10 | > 10 | > 10 | > 10 | 1 to 10 (≈ 3.18 to 31.8 µM) | > 10 | 1 to 10 (≈ 3.18 to 31.8 µM) | 1 to 10 (≈ 3.18 to 31.8 µM) | 1 to 10 (≈ 3.18 to 31.8 µM) | –
COCCn1ccc(C(C)C)c1C(=O)C(=O)Nc1ccc(N2CCN(c3cc(C)cc(C)n3)CC2)cc1 [Example 83, N-{4-[4-(4,6-Dimethyl-pyridin-2-yl)-piperazin-1-yl]-phenyl}-2-[3-isopropyl-1-(2-methoxy-ethyl)-1H-pyrrol-2-yl]-2-oxo-acetamide] | – | – | – | – | – | – | – | – | > 10 | > 10 | > 10 | > 10 | > 10 | > 10 | > 10 | 1 to 10 (≈ 1.99 to 19.9 µM) | > 10 | 1 to 10 (≈ 1.99 to 19.9 µM) | 1 to 10 (≈ 1.99 to 19.9 µM) | 1 to 10 (≈ 1.99 to 19.9 µM) | –
Cc1cc(C)nc(N2CCN(c3ccc(NC(=O)C(=O)c4c(-c5ccccc5)c(F)c(C)n4C)cc3)CC2)c1 [Example 90, N-{4-[4-(4,6-Dimethyl-pyridin-2-yl)-piperazin-1-yl]-phenyl}-2-(4-fluoro-1,5-dimethyl-3-phenyl-1H-pyrrol-2-yl)-2-oxo-acetamide] | – | – | – | – | – | – | – | – | < 1 | < 1 | < 1 | < 1 | < 1 | < 1 | < 1 | < 1 | < 1 | < 1 | < 1 | < 1 | –
Cc1cc(C)nc(N2CCN(c3ccc(NC(=O)C(=O)c4c(-c5ccccc5)cc(C)n4Cc4ccccn4)cc3)CC2)c1 [Example 91, N-{4-[4-(4,6-Dimethyl-pyridin-2-yl)-piperazin-1-yl]-phenyl}-2-(5-methyl-3-phenyl-1-pyridin-2-ylmethyl-1H-pyrrol-2-yl)-2-oxo-acetamide] | – | – | – | – | – | – | – | – | > 10 | > 10 | > 10 | > 10 | > 10 | > 10 | > 10 | 1 to 10 (≈ 1.71 to 17.1 µM) | > 10 | 1 to 10 (≈ 1.71 to 17.1 µM) | > 10 | 1 to 10 (≈ 1.71 to 17.1 µM) | –
COCCn1c(C)cc(-c2ccccc2)c1C(=O)C(=O)Nc1ccc(N2CCN(c3cc(C)cc(C)n3)CC2)cc1Cl [Example 92, N-{2-Chloro-4-[4-(4,6-dimethyl-pyridin-2-yl)-piperazin-1-yl]-phenyl}-2-[1-(2-methoxy-ethyl)-5-methyl-3-phenyl-1H-pyrrol-2-yl]-2-oxo-acetamide] | 1 (a grade of 1 represents an MIC of greater than 10 mg/L) | 3 (A grade of 3 represents an MIC of less than 1 mg/L) | 3 (A grade of 3 represents an MIC of less than 1 mg/L) | 3 (A grade of 3 represents an MIC of less than 1 mg/L) | 1 (a grade of 1 represents an MIC of greater than 10 mg/L) | 1 (a grade of 1 represents an MIC of greater than 10 mg/L) | 3 (A grade of 3 represents an MIC of less than 1 mg/L) | 3 (A grade of 3 represents an MIC of less than 1 mg/L) | – | – | – | – | – | – | – | – | – | – | – | – | MIC grade, A. niger (Aspergillus niger [9]): 3 (A grade of 3 represents an MIC of less than 1 mg/L); MIC grade, A. fumigatus 210 [10]: 3 (A grade of 3 represents an MIC of less than 1 mg/L); MIC grade, A. terreus (Aspergillus terreus AT4 [11]): 3 (A grade of 3 represents an MIC of less than 1 mg/L); MIC grade, A. terreus 49 (Aspergillus terreus AT49 [12]): 3 (A grade of 3 represents an MIC of less than 1 mg/L)
Cc1cc(C)nc(N2CCN(c3ccc(NC(=O)C(=O)c4c(-c5ccccc5)cc(C)n4Cc4cccnc4)cc3)CC2)c1 [Example 93, N-{4-[4-(4,6-Dimethyl-pyridin-2-yl)-piperazin-1-yl]-phenyl}-2-(5-methyl-3-phenyl-1-pyridin-3-ylmethyl-1H-pyrrol-2-yl)-2-oxo-acetamide] | – | – | – | – | – | – | – | – | > 10 | 1 to 10 (≈ 1.71 to 17.1 µM) | 1 to 10 (≈ 1.71 to 17.1 µM) | 1 to 10 (≈ 1.71 to 17.1 µM) | > 10 | > 10 | 1 to 10 (≈ 1.71 to 17.1 µM) | < 1 | < 1 | < 1 | 1 to 10 (≈ 1.71 to 17.1 µM) | 1 to 10 (≈ 1.71 to 17.1 µM) | –
COCCn1c(C)c(F)c(-c2ccccc2)c1C(=O)C(=O)Nc1ccc(N2CCN(c3cc(C)cc(C)n3)CC2)cc1 [Example 94, N-{4-[4-(4,6-Dimethyl-pyridin-2-yl)-piperazin-1-yl]-phenyl}-2-[4-fluoro-1-(2-methoxy-ethyl)-5-methyl-3-phenyl-1H-pyrrol-2-yl]-2-oxo-acetamide] | – | – | – | – | – | – | – | – | > 10 | < 1 | 1 to 10 (≈ 1.76 to 17.6 µM) | 1 to 10 (≈ 1.76 to 17.6 µM) | 1 to 10 (≈ 1.76 to 17.6 µM) | 1 to 10 (≈ 1.76 to 17.6 µM) | 1 to 10 (≈ 1.76 to 17.6 µM) | < 1 | 1 to 10 (≈ 1.76 to 17.6 µM) | < 1 | < 1 | < 1 | –
